Assays:
cortical neurons = conditions: cited from earlier work; for Protection of neurons from the neurotoxic effect of 3-deoxyglucosone and methylglyoxal: cotreatment with aminoguanidine, pretreatment with N-acetylcysteine
[1] = test system: internal limiting membrane of the retina; conditions: direct application; white light for 3 minutes; cited from earlier work
porcine corneas = assay: Corneal surface wave elastometry after standard crosslinking or flash-linking; conditions: group 1
Method: To investigate comparative cornea stiffness values in porcine corneas after standard crosslinking and a new, rapid method of crosslinking (flash-linking) using surface wave elastometry (Sonic Eye, PriaVision Inc, Menlo Park, Calif.).
Six porcine eyes were treated using a UVA double diode with 4.2 mW/cm2 UVA at 370 nm while applying 0.1% riboflavin-5-phosphate drops to the central cornea every 5 minutes as a photosensitizer for 30 min (group 1). The next 6 porcine corneas were treated with a single application of a customized photoactive crosslinking agent (PriaVision Inc) and 30 seconds of UVA light at the same power and wavelength (group 2). Following both experimental treatments, the Sonic Eye system was used to measure ultrasound surface wave propagation time between two fixed-distance transducers applied to the cornea along central horizontal and vertical positions. Intraocular pressure was continuously monitored using a digital pressure monitor display (Infinity SC9000XL, Drager medical, Lubeck, Germany) after vitreous chamber cannulation with a 23-gauge needle.

retinal ganglion cells = conditions: by inhibiting nitric oxide synthase; cited from earlier work
porcine sclera = conditions: scleral strips; 1 hour glutaraldehyde, 5 days glyceraldehydes, 30 minutes UVA for riboflavin/UVA; cited from earlier work
human sclera = conditions: scleral strips; 1 hour glutaraldehyde, 5 days glyceraldehydes, 30 minutes UVA for riboflavin/UVA; cited from earlier work
human LC = conditions: strips incubated in 0.5 M agent over 5 days; cited from earlier work
human PS = conditions: strips incubated in 0.5 M agent over 5 days; cited from earlier work
keratoconus = conditions: topical riboflavin with UVA light exposure; cited from earlier work
[2] = test system: optic nerve/lamina cribrosa complex; assay: Surface wave velocity (stiffness) across the optic nerve/lamina cribrosa complex of whole globes, Sonic Eye elastometer; parameters: species or system porcine; conditions: Example 1 group 2
Method: (§1) Surface wave velocity (SWV) is a measure of tissue stiffness, and is performed by detecting the velocity of an ultrasonic wave between 2 points (Sonic Eye, Priavision, Menlo Park, Calif.) (Dupps W J, et al., J Refract Surg; 23: 66-75 (2007)). 19 porcine eyes were divided into 2 groups. In group 1 (6 eyes), the SWV across the exposed optic nerve/lamina cribrosa complex (ON/LCC) was initially measured at the eyes' physiologic IOP and at 100 mmHg. The porcine globes were cannulated with IV tubing to facilitate the change in IOP. In group 2 (13 eyes), the pre-treatment SWV was measured across the same region and atop the peri-papillary sclera, after which both regions were treated with riboflavin 1%, Q 5 min×6, and UVA irradiation (˜365 nm at 3 mW/cm^2) for 30 min per eye. The SWV was then re-measured in each eye at the pre-treatment IOP and at 100 mmHg.
(§2) An annular sponge soaked in GTA was exposed to the peripapillary sclera for ˜30 minutes, and not the ON/LCC. Measurements were repeated as above, but also along each quadrant of peripapillary sclera to ensure uniformity and symmetry of crosslinking around the ON/LCC. The results are summarized as follows:
(§3) Eighteen porcine globes were divided evenly into 3 groups. The optic nerves were transected to expose the ON/LC, and each globe was infused through an in-line pressure transducer for direct IOP control. Surface wave velocity, a non-destructive measure of tissue stiffness, was measured across the ON/LC and PS before and after collagen crosslinking at IOP of 10 and 30 mmHg (groups 1 and 2) and at each globe's preinflation IOP and 80 mmHg (group 3). In group 3, papillary strain was measured by analyzing the displacement of fiducial marks immediately adjacent to the ON/LC using digital photography.
(§4) Surface wave velocity (SWV) is a measure of tissue stiffness that has been used in dermatologic applications to measure age-related changes (Potts R O, et al., J Invest Dermatol.; 82(1):97-100 (1984); Potts R O, et al., J Biomech.; 16(6):365-372 (1983); Davis B R, et al., Exp Gerontol; 24(3):201-210 (1989)), softening effects of tissue hydration and skin creams (Vexler A, et al., J Invest Dermatol; 113(5):732-739 (1999)), and sclerosing effects of radiation on breast skin (Gorodetsky R, et al., Int J Radiat Oncol Biol Phys.; 45(4):893-900 (1999)). When acoustic waves in the 0.5 to 30 kHz frequency range are used, propagation speed in skin is related to the density and stiffness of the tissue (Pereira J M, et al., J Biomech.; 23(8):745-751 (1990)). A prototype handheld ocular surface elastometer (Sonic Eye, Priavision, Menlo Park, Calif.) with an operating frequency within this range (4 kHz) and a fixed 4.5 mm wave propagation distance has been described in detail elsewhere (Dupps W J Jr, et al., J Refract Surg.; 23(1):66-75 (2007)). The Sonic Eye was used in this study as a non-destructive means of measuring local in situ tissue stiffness across and around the optic nerve head.
Eighteen porcine eyes were obtained from a local abattoir (Heffelfingers Meats, Inc., Jeromesville, Ohio) and were used within 24 hours postmortem. The optic nerves were dissected under microscopic visualization to expose the ON/LC (FIG. 1). […]
(§5) Three experimental groups of 6 eyes each were defined. In group 1, SWV across the optic nerve/lamina cribrosa complex and peripapillary scleral regions of interest were measured at 10 and 30 mmHg to represent a physiological range of pressures. […]

peripapillary sclera = assay: Surface wave velocity (stiffness) of the peripapillary sclera of whole globes, Sonic Eye elastometer; parameters: species or system porcine; conditions: riboflavin 1% + UVA 30 min
Method: as §1, §2, §3, §4
Eighteen porcine eyes were obtained from a local abattoir (Heffelfingers Meats, Inc., Jeromesville, Ohio) and were used within 24 hours postmortem. The optic nerves were dissected under microscopic visualization to expose the ON/LC (FIG. 1). […] Replicate SWV measurements were obtained at a rate of 1 per second with a triggering foot pedal to produce at least 5 measurements that were subsequently averaged for each region of interest. A PC software interface converted the time-of-flight data to velocity in meters per second (m/s), and the velocity data were exported to Excel (v. 11, SP2; Microsoft Corp, Redmond, Wash.) and Minitab (v. 14.20; Minitab Inc, State College, Pa.) for statistical analysis.
as §5

rabbit eyes = conditions: 370 nm light at 4.2 mW/cm2; cited from earlier work

For O=CC(=O)C[C@H](O)[C@H](O)CO [3-deoxyglucosone], the “Neurotoxic effect to cortical neurons” value (cortical neurons) is listed as “neurotoxic effect”.

In the case of CC1(C)C(/C=C/C=C/C=C/C=C2\N(CCCCS(=O)(=O)O)c3ccc4ccccc4c3C2(C)C)=[N+](CCCCS(=O)(=O)[O-])c2ccc3ccccc3c21 [ICG, indocyanine green], the “Stiffness of the internal limiting membrane of the retina” value [1] is listed as “increase the stiffness”.

For CC(=O)N[C@@H](CS)C(=O)O [N-acetylcysteine], the “Protection of neurons from the neurotoxic effect of 3-deoxyglucosone and methylglyoxal” value (cortical neurons) is given as “protected the neurons”.

With Cc1cc2nc3c(=O)[nH]c(=O)nc-3n(C[C@H](O)[C@H](O)[C@H](O)COP(=O)(O)O)c2cc1C [UVA+riboflavin, riboflavin-5-phosphate] the “Mean surface wave velocity of cornea after crosslinking” value (porcine corneas; 0.1% riboflavin-5-phosphate drops every 5 min, UVA 4.2 mW/cm2 370 nm 30 min) was 111.35±2.16 m/s and the “Increase of mean surface wave velocity of cornea after crosslinking” value (porcine corneas; from 93.6 to 111.3 m/s, p=0.032) was 17.7 units.

In the case of N=C(N)NN [aminoguanidine], the “Neuroprotective effect to retinal ganglion cells” value (retinal ganglion cells) is given as “neuroprotective effect” and the “Protection of neurons from the neurotoxic effect of 3-deoxyglucosone and methylglyoxal” value (cortical neurons) is given as “protected the neurons”.

For O=CC(O)CO (stereo not shown) [glyceraldehydes, glyceraldehyde], the “Rise in porcine scleral stress (rigidity)” value (porcine sclera) is given as 5 ×, the “Rise in human scleral stress (rigidity)” value (human sclera) is given as 34% and the “Increase of stress with 20% strain of human LC” value (human LC) is given as over 1.5 fold. The “Increase of stress with 20% strain of human PS” value (human PS) was over 2 fold.

In the case of CC(=O)C=O [methylglyoxal], the “Increase of stress with 20% strain of human LC” value (human LC) is listed as over 2 fold and the “Increase of stress with 20% strain of human PS” value (human PS) is listed as over 3 fold.

For Cc1cc2nc3c(=O)[nH]c(=O)nc-3n(C[C@H](O)[C@H](O)[C@H](O)CO)c2cc1C [riboflavin/UVA, riboflavin], the “Clinical effect in keratoconus” value (keratoconus) is listed as “used effectively as a stabilizing treatment for keratoconus”, the “Rise in porcine scleral stress (rigidity)” value (porcine sclera) is listed as 1.5 × and the “Rise in human scleral stress (rigidity)” value (human sclera) is listed as 29%. The “Change of SWV of the ON/LCC upon raising the IOP to 100 mmHg after crosslinking” value ([2]; riboflavin 1% + UVA 30 min, p=0.1) was “no change”, the “SWV (stiffness) of the ON/LCC after crosslinking” value ([2]; riboflavin 1% Q 5 min x6 + UVA ~365 nm 3 mW/cm^2 30 min to ON/LCC and PS, pre-treatment IOP, mean±SD) was 32.8±1.1 m/s and the “SWV of the peripapillary sclera after crosslinking at 100 mmHg” value (peripapillary sclera; Example 1 group 2, IOP 100 mmHg) was 63.5±1.8 m/s. For the same compound, the “SWV (stiffness) of the peripapillary sclera after crosslinking” value (peripapillary sclera; Example 1 group 2, pre-treatment IOP, mean±SD) was 55.7±1.5 m/s, the “Stiffness of Peripapillary Sclera, Post-crosslinking Mean ± SD” value (peripapillary sclera; Example 3 Group 1, Low IOP 10 mmHg) was 85.5 ± 13.5 m/s and the “Retinal cell death after riboflavin and irradiation” value (rabbit eyes) was “retinal pigment epithelium (RPE), photoreceptor and outer nuclear layer death”.

Reference: patent US8580789B2, “Treating glaucoma” (The Cleveland Clinic Foundation, priority 2007, dated 2013)
